Source: US20050010126A1, “Assessment of concentration of inhalational compounds in the brain” (priority 2001, published 2005)

Experiments:
[1] = alveolar membrane factor M of an inhalational compound; type: in vivo, patients
From the text: As the gas penetrates the alveolar membrane and enters the pulmonary capillary blood flow, it must follow the Fick's principal. See Katzung, R. G. (1998) Basic principles, introduction in basic and clinical pharmacology Appleton-Lange p 5. The Fick's principal defines the rate of penetrating the alveolar membrane as: DAk/x (Ci-Cb') D is a diffusion constant, A is the area of the membrane (proportional to the pulmonary capillary flow or cardiac output), k is a solubility coefficient, x is the thickness of the membrane, Ci is an inspired compound concentration, and Cb' is the mixed venous compound concentration. Assuming that the pulmonary capillary flow or the cardiac output is constant, then, for a given inhalational compound, DAk/x is a constant. This constant DAk/x is defined as a membrane factor, M, which varies from one inhalational compound to another. […] Since the membrane factor may vary slightly among patients, a more precise determination of the membrane factor can be performed as described below. The rate of penetrating the alveolar membrane DAk/x (Ci-Cb') can be expressed as: M(Ci-Cb'), in which M is DAk/x. When measuring an uptake of an inhalational compound-containing gas in each breathing cycle, the rate of the uptake is a function of a difference between the inspired concentration (Ci) and the expired concentration (Ce). The difference can be expressed as: Ci-Ce. Ci-Ce. and M (Ci-Cb') both represent the rate of uptake of an inhalational compound: Ci-Ce=M(Ci-Cb'), or M=(Ci-Ce)/(Ci-Cb'). During the initial introduction of an inhalational compound (before the FRC is filled with the gas), the membrane factor M for an individual can be approximated by assuming Cb'=0: M=(Ci-Ce)/Ci=1-(Ce/Ci).

[2] = assessment of mixed venous and brain anesthetic concentration from inspired and expired concentrations
From the text: At the stage of anesthesia (after the FRC is filled with the gas), the equation: Ci′−Ce′=M (Ci′−Cb′) can be used to calculate the compound concentration in the mixed venous blood (Cb′), in which Ci′ and Cb′ are the inspired compound concentration and the expired compound concentration, respectively: Cb′=[Ci′(M−1)+Ce′]/M.
As discussed above, Cb=(A+J)/2 and (A+J)/2=(Ce′+2Cb′)/3 or (Ce′+3Cb′)/4, the compound concentration in the brain (Cb) can be expressed as: Cb=(Ce′+2Cb′)/3 or (Ce+3Cb′)/4.
Thus, with measurements of the expired compound concentration (Ce′) and the mixed venous compound concentration (Cb′), the compound concentration in the brain (Cb) can be readily obtained. Below are two examples of how to assess brain anesthetic concentrations by this method.
A tube is connected to the circle system of an anesthesia machine consisting of gas flowmeters, a compound vaporizer, supply of oxygen, air and nitrous oxide gas, and a ventilator (e.g., Detex-Ohmeda, Finland, or Drager, Germany). The gas is then delivered to the patient by the anesthesia machine. […] Near the connection between the circle system and the tube, a side arm sampling site is linked to a gas monitoring equipment (e.g., an infra-red monitor or a mass spectrometer). Typically, a sampling speed is 200 mL/min. […] A more precise determination of M is performed at the end of 3 min, when 85-95% of the FRC has been filled with the gas.

[3] = general value for the compound, for most patients

FC(F)OC(F)C(F)(F)F (stereo not drawn) [desflurane]
patient's membrane factor M = (Ci-Ce)/Ci ([1]; desflurane, inspired 6%, expired 4.8% at 3-4 minutes (85-95% of FRC filled)): 0.2 | membrane factor M (DAk/x) [1, 3]: 0.2 | concentration in the brain (Cb) = (Ce'+3Cb')/4 ([2]; desflurane, inspired 6.2%, expired 5.4%, M 0.2): 3.0%

FC(F)(F)C(Cl)Br (stereo not drawn) [halothane]
membrane factor M (DAk/x) ([1]; human, in vivo): 0.5

FC(F)OC(Cl)C(F)(F)F (stereo not drawn) [isoflurane]
membrane factor M (DAk/x) ([1]; human, in vivo): 0.4

COC(F)(F)C(Cl)Cl [methoxyflurane]
membrane factor M (DAk/x) [1, 3]: 0.8

FCOC(C(F)(F)F)C(F)(F)F [sevoflurane]
patient's membrane factor M = (Ci-Ce)/Ci ([1]; human, in vivo): 0.214 | brain concentration (Cb) = (Ce'+2Cb')/3 ([2]; human, in vivo, 30 min): 1.77% | concentration in the mixed venous blood (Cb') ([2]; human, in vivo, 30 min): 1.16%
